Assay results: ChEMBL document CHEMBL4419177, “Crystalline forms of a lysyl oxidase-like 2 inhibitor and methods of making” (2018)

Tests used:
Assay type in all cases: physicochemical
[1] = Solubility of compound ( form 1 ) in 150 uL water at 30 mg; conditions: buffer
[2] = Solubility of compound ( form 1 ) in 10 uL water at 10 mg; conditions: buffer
[3] = Stability under 3 month accelerated condition (40 degC/75% RH ) assessed as changes in purity or absorption of moisture; conditions: 2191.5 h
[4] = Stability under 1-year ICH study conditions assessed as chemical or physical changes; conditions: 8766 h
[5] = Stability under 2-year ICH study conditions assessed as chemical or physical changes; conditions: 17532 h
[6] = Stability of the compound as a solid form exposed to heat at 100 degC incubated for 24 hrs by HPLC analysis
[7] = Stability of the compound as a solid form exposed to light (max 365 nm) incubated for 24 hrs by HPLC analysis
[8] = Stability of the compound as a solid form exposed to heat at 50 degC incubated for 24 hrs by HPLC analysis

SMILES: Cl.NCc1cc(Oc2cccc(C(=O)N3C[C@@H](O)[C@H](F)C3)c2)nc(C(F)(F)F)c1
- solubility [1]: Soluble
- solubility [2]: Soluble
- Stability [3]: Stable

SMILES: CS(=O)(=O)O.NCc1cc(Oc2cccc(C(=O)N3C[C@@H](O)[C@H](F)C3)c2)nc(C(F)(F)F)c1
- Stability [4]: Stable
- Stability [5]: Stable
- Stability [6]: Stable
- Stability [7]: Stable
- Stability [8]: Stable
